Measurements as given in ChEMBL document CHEMBL3132769, “Fragment growing to retain or alter the selectivity of anchored kinase hinge-binding fragments” (Medchemcomm, 2014).

What was measured:
[1] = biological target: Serine/threonine-protein kinase Chk2 (Homo sapiens) (UniProt O96017); assay: Inhibition of human full length CHK2 expressed in baculovirus assessed as substrate phosphorylation using fluorescence-labelled peptides as substrate at 0.06 uM after 90 mins by microfluidic peptide phosphorylation assay
[2] = biological target: Protein kinase C beta type (Homo sapiens) (UniProt P05771); assay: Inhibition of human full length PKC beta2 expressed in baculovirus assessed as substrate phosphorylation using fluorescence-labelled peptides as substrate at 0.06 uM after 90 mins by microfluidic peptide phosphorylation assay
[3] = biological target: T1, Protein kinase C epsilon type (Homo sapiens) (UniProt Q02156); assay: Inhibition of human truncated PKC epsilon expressed in baculovirus assessed as substrate phosphorylation using fluorescence-labelled peptides as substrate at 0.06 uM after 90 mins by microfluidic peptide phosphorylation assay
T1 sequence (whole entry): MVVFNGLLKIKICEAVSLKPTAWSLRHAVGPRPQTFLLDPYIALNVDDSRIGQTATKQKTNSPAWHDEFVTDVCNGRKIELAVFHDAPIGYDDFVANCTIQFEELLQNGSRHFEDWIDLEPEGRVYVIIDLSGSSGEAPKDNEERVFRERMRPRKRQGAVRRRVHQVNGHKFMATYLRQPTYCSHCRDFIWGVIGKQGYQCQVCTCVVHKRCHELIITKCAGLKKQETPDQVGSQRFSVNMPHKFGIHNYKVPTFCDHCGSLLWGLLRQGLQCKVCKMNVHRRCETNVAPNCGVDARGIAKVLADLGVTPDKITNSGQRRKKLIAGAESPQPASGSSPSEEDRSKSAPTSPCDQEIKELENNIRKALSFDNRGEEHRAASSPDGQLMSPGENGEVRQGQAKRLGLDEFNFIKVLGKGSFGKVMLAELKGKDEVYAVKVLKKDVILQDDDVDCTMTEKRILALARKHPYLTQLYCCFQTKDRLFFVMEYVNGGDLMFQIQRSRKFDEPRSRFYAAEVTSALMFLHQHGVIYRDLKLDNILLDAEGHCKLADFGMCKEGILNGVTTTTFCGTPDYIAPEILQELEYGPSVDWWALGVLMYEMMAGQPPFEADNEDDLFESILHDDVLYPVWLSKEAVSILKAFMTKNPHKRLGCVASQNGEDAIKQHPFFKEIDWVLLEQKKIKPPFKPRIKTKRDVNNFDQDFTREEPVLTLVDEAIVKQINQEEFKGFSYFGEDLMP

[4] = biological target: MAP kinase p38 (Homo sapiens) (UniProt O15264+Q15759+Q16539+P53778); assay: Inhibition of human full length p38 beta2 expressed in Escherichia coli cell assessed as substrate phosphorylation using fluorescence-labelled peptides as substrate at 420 uM after 90 mins by microfluidic peptide phosphorylation assay
[5] = biological target: Calcium/calmodulin-dependent protein kinase type II subunit beta (Homo sapiens) (UniProt Q13554); assay: Inhibition of human CAMK2 beta catalytic domain expressed in baculovirus assessed as substrate phosphorylation using fluorescence-labelled peptides as substrate at 420 uM after 90 mins by microfluidic peptide phosphorylation assay
[6] = biological target: Protein kinase C eta type (Homo sapiens) (UniProt P24723); assay: Inhibition of human truncated PKC eta expressed in baculovirus assessed as substrate phosphorylation using fluorescence-labelled peptides as substrate at 0.2 uM after 90 mins by microfluidic peptide phosphorylation assay
[7] = biological target: Glycogen synthase kinase-3 beta (Homo sapiens) (UniProt P49841); assay: Inhibition of human full length GSK-3 beta expressed in baculovirus assessed as substrate phosphorylation using fluorescence-labelled peptides as substrate at […] after 90 mins by microfluidic peptide phosphorylation assay
[8] = biological target: Fibroblast growth factor receptor 1 (Homo sapiens) (UniProt P11362); assay: Inhibition of human FGFR1 catalytic domain expressed in baculovirus assessed as substrate phosphorylation using fluorescence-labelled peptides as substrate at 0.1 uM after 90 mins by microfluidic peptide phosphorylation assay
[9] = biological target: T2, Serine/threonine-protein kinase Nek2 (Homo sapiens) (UniProt P51955); assay: Inhibition of human full length NEK2 expressed in baculovirus assessed as substrate phosphorylation using fluorescence-labelled peptides as substrate at 9 uM after 90 mins by microfluidic peptide phosphorylation assay
T2 sequence (whole entry): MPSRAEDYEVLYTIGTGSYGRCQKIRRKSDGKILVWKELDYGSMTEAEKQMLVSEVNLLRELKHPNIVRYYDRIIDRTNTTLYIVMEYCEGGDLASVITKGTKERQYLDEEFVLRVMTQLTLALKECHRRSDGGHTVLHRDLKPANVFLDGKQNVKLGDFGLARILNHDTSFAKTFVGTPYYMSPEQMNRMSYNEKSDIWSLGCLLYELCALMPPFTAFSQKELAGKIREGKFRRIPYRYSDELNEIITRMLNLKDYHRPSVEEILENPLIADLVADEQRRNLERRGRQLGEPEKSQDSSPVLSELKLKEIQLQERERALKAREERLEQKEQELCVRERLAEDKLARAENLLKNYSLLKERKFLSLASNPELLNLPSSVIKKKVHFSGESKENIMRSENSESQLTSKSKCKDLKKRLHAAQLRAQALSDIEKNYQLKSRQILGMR

[10] = biological target: Receptor-type tyrosine-protein kinase FLT3 (Homo sapiens) (UniProt P36888); assay: Inhibition of human FLT3 catalytic domain expressed in baculovirus assessed as substrate phosphorylation using fluorescence-labelled peptides as substrate at 95 uM after 90 mins by microfluidic peptide phosphorylation assay
[11] = biological target: Tyrosine-protein kinase Fyn (Homo sapiens) (UniProt P06241); assay: Inhibition of human full length FYN expressed in baculovirus assessed as substrate phosphorylation using fluorescence-labelled peptides as substrate at 1000 uM after 90 mins by microfluidic peptide phosphorylation assay
[12] = biological target: Protein kinase C theta type (Homo sapiens) (UniProt Q04759); assay: Inhibition of human truncated PKC theta expressed in baculovirus assessed as substrate phosphorylation using fluorescence-labelled peptides as substrate at 1000 uM after 90 mins by microfluidic peptide phosphorylation assay
[13] = system: Tyrosine-protein kinase ABL1 (Homo sapiens), P00519 [Q252H]; assay: Inhibition of human truncated ABL Q252H mutant expressed in baculovirus assessed as substrate phosphorylation using fluorescence-labelled peptides as substrate at 2 uM after 90 mins by microfluidic peptide phosphorylation assay
[14] = biological target: Vascular endothelial growth factor receptor 2 (Homo sapiens) (UniProt P35968); assay: Inhibition of human KDR cytoplasmic domain expressed in baculovirus assessed as substrate phosphorylation using fluorescence-labelled peptides as substrate at 2 uM after 90 mins by microfluidic peptide phosphorylation assay
Chain of Vascular endothelial growth factor receptor 2 (Homo sapiens) (P35968 whole entry, the tested form may be a part): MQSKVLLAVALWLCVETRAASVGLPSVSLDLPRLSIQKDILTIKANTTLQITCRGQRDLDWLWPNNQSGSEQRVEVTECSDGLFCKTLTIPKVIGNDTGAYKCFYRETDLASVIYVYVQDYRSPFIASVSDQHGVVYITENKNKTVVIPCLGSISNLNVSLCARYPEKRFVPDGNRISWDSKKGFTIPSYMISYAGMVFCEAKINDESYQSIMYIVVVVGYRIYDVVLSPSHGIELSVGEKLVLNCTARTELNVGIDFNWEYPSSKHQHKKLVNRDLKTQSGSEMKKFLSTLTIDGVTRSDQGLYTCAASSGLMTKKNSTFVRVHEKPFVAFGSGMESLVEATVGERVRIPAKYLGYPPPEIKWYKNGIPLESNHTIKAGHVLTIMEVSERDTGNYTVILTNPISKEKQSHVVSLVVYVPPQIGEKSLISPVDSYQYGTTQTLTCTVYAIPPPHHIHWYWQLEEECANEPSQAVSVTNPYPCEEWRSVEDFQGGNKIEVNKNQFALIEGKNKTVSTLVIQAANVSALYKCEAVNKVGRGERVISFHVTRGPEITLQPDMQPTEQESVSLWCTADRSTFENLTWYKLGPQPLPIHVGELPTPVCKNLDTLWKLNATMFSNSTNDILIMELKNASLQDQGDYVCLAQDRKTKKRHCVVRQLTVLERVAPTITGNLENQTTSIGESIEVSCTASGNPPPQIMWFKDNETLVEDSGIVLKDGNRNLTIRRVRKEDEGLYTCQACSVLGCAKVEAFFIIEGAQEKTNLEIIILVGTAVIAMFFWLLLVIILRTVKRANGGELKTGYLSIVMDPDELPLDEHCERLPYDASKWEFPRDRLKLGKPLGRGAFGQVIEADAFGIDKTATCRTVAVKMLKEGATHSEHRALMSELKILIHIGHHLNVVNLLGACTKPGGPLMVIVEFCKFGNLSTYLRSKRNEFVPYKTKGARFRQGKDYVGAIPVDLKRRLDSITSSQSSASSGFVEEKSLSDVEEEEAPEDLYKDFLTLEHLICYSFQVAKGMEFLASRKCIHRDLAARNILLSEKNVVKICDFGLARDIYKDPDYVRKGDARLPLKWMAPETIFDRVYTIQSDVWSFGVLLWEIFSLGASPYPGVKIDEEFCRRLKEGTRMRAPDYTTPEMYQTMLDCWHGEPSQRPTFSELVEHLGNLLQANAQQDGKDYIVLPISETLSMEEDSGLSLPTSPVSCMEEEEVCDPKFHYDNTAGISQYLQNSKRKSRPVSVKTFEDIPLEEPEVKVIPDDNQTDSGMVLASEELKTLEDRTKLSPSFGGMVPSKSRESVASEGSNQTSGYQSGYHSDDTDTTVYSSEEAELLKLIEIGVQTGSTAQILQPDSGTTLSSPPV

Chain of Receptor-type tyrosine-protein kinase FLT3 (Homo sapiens) (P36888 whole entry, the tested form may be a part): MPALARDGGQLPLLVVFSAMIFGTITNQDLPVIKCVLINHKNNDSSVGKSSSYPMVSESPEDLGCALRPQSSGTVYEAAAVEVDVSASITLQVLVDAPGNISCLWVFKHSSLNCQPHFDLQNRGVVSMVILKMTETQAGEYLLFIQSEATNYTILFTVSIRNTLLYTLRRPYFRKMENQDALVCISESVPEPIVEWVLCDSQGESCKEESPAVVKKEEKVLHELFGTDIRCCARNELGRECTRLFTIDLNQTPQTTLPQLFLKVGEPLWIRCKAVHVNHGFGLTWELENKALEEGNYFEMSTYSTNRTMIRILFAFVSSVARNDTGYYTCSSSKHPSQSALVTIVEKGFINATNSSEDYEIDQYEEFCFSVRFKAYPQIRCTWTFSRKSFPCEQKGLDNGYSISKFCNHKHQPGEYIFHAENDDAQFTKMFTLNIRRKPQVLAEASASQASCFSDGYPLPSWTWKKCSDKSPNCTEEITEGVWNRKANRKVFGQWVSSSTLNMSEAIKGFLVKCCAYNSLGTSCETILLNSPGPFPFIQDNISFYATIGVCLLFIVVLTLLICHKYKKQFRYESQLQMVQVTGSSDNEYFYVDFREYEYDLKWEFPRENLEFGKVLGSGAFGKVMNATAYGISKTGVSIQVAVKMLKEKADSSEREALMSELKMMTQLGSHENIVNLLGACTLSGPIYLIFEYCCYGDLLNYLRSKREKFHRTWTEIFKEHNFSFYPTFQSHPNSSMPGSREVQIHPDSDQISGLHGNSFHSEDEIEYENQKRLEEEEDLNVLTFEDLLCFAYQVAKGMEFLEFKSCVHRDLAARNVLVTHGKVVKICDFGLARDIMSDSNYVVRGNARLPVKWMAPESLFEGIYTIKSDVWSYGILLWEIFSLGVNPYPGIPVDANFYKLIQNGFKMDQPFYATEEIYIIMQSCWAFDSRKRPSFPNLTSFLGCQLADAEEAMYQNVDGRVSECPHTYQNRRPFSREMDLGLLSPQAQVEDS
Chain of Serine/threonine-protein kinase Chk2 (Homo sapiens) (O96017 whole entry): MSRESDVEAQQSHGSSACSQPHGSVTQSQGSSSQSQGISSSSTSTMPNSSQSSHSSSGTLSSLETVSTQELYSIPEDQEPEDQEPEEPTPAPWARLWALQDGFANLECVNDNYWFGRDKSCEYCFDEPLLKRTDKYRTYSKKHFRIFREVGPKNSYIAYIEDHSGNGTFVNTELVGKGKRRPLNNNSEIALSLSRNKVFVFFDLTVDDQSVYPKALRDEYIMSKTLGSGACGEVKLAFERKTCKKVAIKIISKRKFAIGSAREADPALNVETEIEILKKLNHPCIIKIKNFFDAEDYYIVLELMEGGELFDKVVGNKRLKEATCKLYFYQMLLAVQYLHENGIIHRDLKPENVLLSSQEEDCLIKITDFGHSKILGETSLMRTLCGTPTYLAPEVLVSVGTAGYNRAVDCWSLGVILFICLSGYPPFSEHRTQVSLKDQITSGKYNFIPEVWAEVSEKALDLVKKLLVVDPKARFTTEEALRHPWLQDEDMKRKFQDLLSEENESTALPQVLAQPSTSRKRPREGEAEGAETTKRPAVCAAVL
Chain of Tyrosine-protein kinase Fyn (Homo sapiens) (P06241 2-537 limits assumed): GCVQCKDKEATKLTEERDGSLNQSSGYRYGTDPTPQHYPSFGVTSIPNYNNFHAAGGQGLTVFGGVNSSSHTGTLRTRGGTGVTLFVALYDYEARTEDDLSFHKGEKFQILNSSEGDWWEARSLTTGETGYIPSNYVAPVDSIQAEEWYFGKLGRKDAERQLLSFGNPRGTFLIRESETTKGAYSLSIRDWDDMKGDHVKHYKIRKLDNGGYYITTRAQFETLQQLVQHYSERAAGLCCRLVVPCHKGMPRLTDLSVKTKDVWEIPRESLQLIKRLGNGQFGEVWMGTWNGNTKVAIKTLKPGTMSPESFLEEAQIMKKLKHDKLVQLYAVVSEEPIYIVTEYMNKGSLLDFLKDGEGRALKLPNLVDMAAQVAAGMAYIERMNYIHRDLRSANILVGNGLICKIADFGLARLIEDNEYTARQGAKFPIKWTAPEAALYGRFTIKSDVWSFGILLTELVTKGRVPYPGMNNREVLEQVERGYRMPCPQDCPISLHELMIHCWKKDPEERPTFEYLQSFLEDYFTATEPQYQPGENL
Chain of Glycogen synthase kinase-3 beta (Homo sapiens) (P49841 whole entry, looked up, the tested form may be a part): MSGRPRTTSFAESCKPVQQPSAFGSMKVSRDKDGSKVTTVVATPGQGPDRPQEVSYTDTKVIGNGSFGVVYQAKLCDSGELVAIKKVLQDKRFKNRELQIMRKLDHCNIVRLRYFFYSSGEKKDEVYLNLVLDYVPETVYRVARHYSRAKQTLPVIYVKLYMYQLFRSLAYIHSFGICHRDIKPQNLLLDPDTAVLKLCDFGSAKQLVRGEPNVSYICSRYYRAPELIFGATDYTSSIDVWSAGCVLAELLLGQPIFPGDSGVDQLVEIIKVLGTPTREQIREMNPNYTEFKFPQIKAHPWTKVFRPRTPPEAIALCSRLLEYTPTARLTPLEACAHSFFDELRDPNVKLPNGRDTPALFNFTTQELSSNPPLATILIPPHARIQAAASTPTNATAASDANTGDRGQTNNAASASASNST
Chain of Protein kinase C eta type (Homo sapiens) (P24723 whole entry, the tested form may be a part): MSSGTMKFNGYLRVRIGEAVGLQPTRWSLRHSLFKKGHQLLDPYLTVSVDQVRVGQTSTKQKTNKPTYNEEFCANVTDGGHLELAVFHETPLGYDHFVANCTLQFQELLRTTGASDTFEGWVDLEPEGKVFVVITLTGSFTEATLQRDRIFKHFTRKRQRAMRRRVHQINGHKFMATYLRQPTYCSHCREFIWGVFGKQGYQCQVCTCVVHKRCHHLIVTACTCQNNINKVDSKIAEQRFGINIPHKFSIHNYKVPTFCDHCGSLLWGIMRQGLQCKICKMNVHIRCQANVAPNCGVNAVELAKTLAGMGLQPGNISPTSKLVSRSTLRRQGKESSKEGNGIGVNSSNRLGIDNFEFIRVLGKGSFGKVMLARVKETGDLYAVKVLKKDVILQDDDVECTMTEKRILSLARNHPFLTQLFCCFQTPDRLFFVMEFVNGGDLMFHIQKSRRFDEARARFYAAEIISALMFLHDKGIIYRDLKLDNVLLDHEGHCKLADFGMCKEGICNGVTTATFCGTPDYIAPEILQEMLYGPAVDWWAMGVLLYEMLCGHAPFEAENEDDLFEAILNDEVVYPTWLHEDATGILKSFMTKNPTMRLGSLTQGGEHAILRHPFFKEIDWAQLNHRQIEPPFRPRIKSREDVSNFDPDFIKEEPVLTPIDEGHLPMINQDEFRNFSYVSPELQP

Compound `NC1(Cc2ccc(Cl)cc2)CCN(c2ncnc3[nH]ccc23)CC1` has an inhibition [1] of 0%, an inhibition [2] of 0% and an inhibition [3] of 1.5%.
For `c1nc(N2CCOCC2)c2nc[nH]c2n1`, the inhibition [4] was 1.5% and the inhibition [5] was 20.5%.
Work on `Clc1ccc(C2(c3ccc(-c4ncnc5[nH]cnc45)cc3)CCNCC2)cc1` yielded an inhibition [6] of 36.5%.
With `COC(=O)c1cnc(Nc2cnc(C#N)cn2)cc1NCC1CCNCC1` the inhibition [7] was 3.5%.
In the case of `C[C@H](CN(C)C)Oc1nc(Nc2cc3cccc(Cl)c3cn2)cnc1C#N`, the inhibition [8] is reported as 2.5%.
`NCC1CN(c2ncnc3[nH]c4cnccc4c23)CCO1` (centres undefined) showed an inhibition [9] of 6%.
Compound `NCCc1ccc(-c2ncnc3[nH]cnc23)cc1` has an inhibition [10] of 49.5%.
`c1cnc2[nH]ccc2c1` showed an inhibition [11] of 24% and an inhibition [12] of 29%.
In the case of `NC1CCN(c2ncnc3[nH]ccc23)CC1`, the inhibition [13] is reported as 17% and the inhibition [14] is reported as 0%.
